Data taken from patent US10905680B2, “Methods of treatment for cholestatic and fibrotic diseases” (Genfit, priority 2016, dated 2021).

How the values were obtained:
[1] = system: Normal Human Lung Fibroblasts (NHLF); experiment: TGFβ1-induced expression of α-SMA protein in human lung fibroblasts (ELISA); type: cell-based; conditions: concentration of 1 μM; TGFβ1 1 ng/ml, 48 hours
Method: NTZ (A) or TZ (B) was added to serum-deprived lung fibroblasts (NHLF) 1 hour before the activation with TGFβ1 (1 ng/ml). After 48 hours of incubation, the expression of α-SMA was measured by ELISA. The obtained values were transformed into percentage inhibition over TGFβ1 control. Data are presented as mean (triplicates)±standard deviation (SD). Statistical analyses were performed by one-way ANOVA followed by Bonferroni post-hoc tests, using Sigma Plot 11.0 software. [*: p<0.05; **: p<0.01; ***: p<0.001 (comparison versus TGFβ1 1 ng/mL group)].
The Normal Human Lung Fibroblasts (NHLF) (Lonza) were cultured in Fibroblast Basal Medium (FBM) (Lonza cat # CC-3131) that was supplemented with FGM-2 SingleQuots™ Kit (Lonza cat # CC-3132). The complete medium contains 2% fetal bovine serum. For the activation experiments with TGFβ1, the NHLF were plated at a density of 5×10^3 cells per well in 96-well plates. The next day, cell-culture medium was removed, and cells were washed with PBS (Invitrogen cat #14190). NHLF were deprived for 24 hours in serum-free, insulin-free and rhFGF-B-free medium. […]
(§1) The level of α-SMA was measured using a Sandwich ELISA. […]

[2] = system: HSC; experiment: Toxicity assays in HSC; type: cell-based, human; conditions: data not shown
[3] = system: Human Intestinal Myofibroblasts (InMyoFib); experiment: TGFβ1-induced expression of α-SMA protein in human intestinal fibroblasts (ELISA); type: cell-based; conditions: concentration of 1 μM; TGFβ1 3 ng/ml, 48 hours
Method: NTZ (A) or TZ (B) were added to serum-deprived intestinal fibroblasts (InMyoFib) 1 hour before the activation with TGFβ1 (3 ng/ml). After 48 hours of incubation, the expression of α-SMA was measured by ELISA. The obtained values were transformed into percentage inhibition over TGFβ1 control. Data are presented as mean (triplicates)±standard deviation (SD). Statistical analyses were performed by one-way ANOVA followed by Bonferroni post-hoc tests, using Sigma Plot 11.0 software. [*: p<0.05; **: p<0.01; ***: p<0.001 (comparison versus TGFβ1 3 ng/mL group)].
The Human Intestinal Myofibroblasts (InMyoFib) (Lonza) were cultured in Smooth Muscle Cell Basal Medium (SmBM-2™) (Lonza cat # CC-3181) that was supplemented with SmGM™-2 BulletKit™ (Lonza cat # CC-4149). The complete medium contains 5% fetal bovine serum. For the activation experiments with TGFβ1, the inMyoFib were plated at a density of 10×10^3 cells per well in 96-well plates. The next day, cell-culture medium was removed, and cells were washed with PBS (Invitrogen cat #14190). InMyoFib were deprived for 24 hours in serum-free, insulin-free and rhFGF-B-free medium. […]
as §1

O=C(Nc1ncc([N+](=O)[O-])s1)c1ccccc1O [TZ, 2-hydroxy-N-(5-nitro-2-thiazolyl)benzamide]
antifibrotic effects (α-SMA) in normal human lung fibroblasts [1]: significant antifibrotic effects | toxicity or apoptosis of HSC [2]: not due to toxicity or apoptosis | antifibrotic effects (α-SMA) in human Intestinal myofibroblasts [3]: significant antifibrotic effects
